Measured values published in the CheMixHub viscosity set.

Assay: xn = mol fraction of the nth substance listed

CCCCCCC + CCO
Details	viscosity [mPa·s]
293.15 K, 101 kPa, x1 = 0.1005	0.9853
293.15 K, 101 kPa, x1 = 0.202	0.8256
293.15 K, 101 kPa, x1 = 0.3022	0.7149
293.15 K, 101 kPa, x1 = 0.4016	0.6285
293.15 K, 101 kPa, x1 = 0.5079	0.567
293.15 K, 101 kPa, x1 = 0.5967	0.516
293.15 K, 101 kPa, x1 = 0.7041	0.4658
293.15 K, 101 kPa, x1 = 0.8008	0.4428
293.15 K, 101 kPa, x1 = 0.8935	0.423
298.15 K, 100 kPa, x1 = 0.0472	1.002
298.15 K, 100 kPa, x1 = 0.1004	0.9149
298.15 K, 100 kPa, x1 = 0.199	0.7776
298.15 K, 100 kPa, x1 = 0.3003	0.6663
298.15 K, 100 kPa, x1 = 0.3994	0.5825
298.15 K, 100 kPa, x1 = 0.507	0.5154
298.15 K, 100 kPa, x1 = 0.5988	0.4742
298.15 K, 100 kPa, x1 = 0.6751	0.449
298.15 K, 100 kPa, x1 = 0.7394	0.4327
298.15 K, 100 kPa, x1 = 0.8085	0.4191
298.15 K, 100 kPa, x1 = 0.9003	0.4048
298.15 K, 101 kPa, x1 = 0.1005	0.9069
298.15 K, 101 kPa, x1 = 0.202	0.7656
298.15 K, 101 kPa, x1 = 0.3022	0.6673
298.15 K, 101 kPa, x1 = 0.4016	0.5856
298.15 K, 101 kPa, x1 = 0.5079	0.5214
298.15 K, 101 kPa, x1 = 0.5967	0.4815
298.15 K, 101 kPa, x1 = 0.7041	0.4422
298.15 K, 101 kPa, x1 = 0.8008	0.4149
298.15 K, 101 kPa, x1 = 0.8935	0.4021
298.15 K, 101.33 kPa, x2 = 0.0831	0.413
298.15 K, 101.33 kPa, x2 = 0.1075	0.394
298.15 K, 101.33 kPa, x2 = 0.1985	0.426
298.15 K, 101.33 kPa, x2 = 0.1999	0.408
298.15 K, 101.33 kPa, x2 = 0.2981	0.444
298.15 K, 101.33 kPa, x2 = 0.3001	0.433
298.15 K, 101.33 kPa, x2 = 0.3932	0.465
298.15 K, 101.33 kPa, x2 = 0.4315	0.487
298.15 K, 101.33 kPa, x2 = 0.5009	0.517
298.15 K, 101.33 kPa, x2 = 0.5079	0.521
298.15 K, 101.33 kPa, x2 = 0.5973	0.584
298.15 K, 101.33 kPa, x2 = 0.6092	0.584
298.15 K, 101.33 kPa, x2 = 0.7009	0.653
298.15 K, 101.33 kPa, x2 = 0.7209	0.69
298.15 K, 101.33 kPa, x2 = 0.8165	0.766
298.15 K, 101.33 kPa, x2 = 0.8241	0.808
298.15 K, 101.33 kPa, x2 = 0.9	0.883
298.15 K, 101.33 kPa, x2 = 0.907	0.922
298.15 K, 101.33 kPa, x2 = 0.9744	1.039
303 K, 101.33 kPa, x2 = 0.3521	0.43
303 K, 101.33 kPa, x2 = 0.5917	0.566
303 K, 101.33 kPa, x2 = 0.7654	0.698
303 K, 101.33 kPa, x2 = 0.8969	0.863
303.15 K, 101 kPa, x1 = 0.1005	0.8186
303.15 K, 101 kPa, x1 = 0.202	0.695
303.15 K, 101 kPa, x1 = 0.3022	0.6164
303.15 K, 101 kPa, x1 = 0.4016	0.5429
303.15 K, 101 kPa, x1 = 0.5079	0.4865
303.15 K, 101 kPa, x1 = 0.5967	0.4506
303.15 K, 101 kPa, x1 = 0.7041	0.4154
303.15 K, 101 kPa, x1 = 0.8008	0.3953
303.15 K, 101 kPa, x1 = 0.8935	0.3827
308.15 K, 101 kPa, x1 = 0.1005	0.7535
308.15 K, 101 kPa, x1 = 0.202	0.6432
308.15 K, 101 kPa, x1 = 0.3022	0.5695
308.15 K, 101 kPa, x1 = 0.4016	0.5077
308.15 K, 101 kPa, x1 = 0.5079	0.4521
308.15 K, 101 kPa, x1 = 0.5967	0.4271
308.15 K, 101 kPa, x1 = 0.7041	0.3957
308.15 K, 101 kPa, x1 = 0.8008	0.3691
308.15 K, 101 kPa, x1 = 0.8935	0.3633
313 K, 101.33 kPa, x2 = 0.3521	0.38
313 K, 101.33 kPa, x2 = 0.5917	0.483
313 K, 101.33 kPa, x2 = 0.7654	0.587
313 K, 101.33 kPa, x2 = 0.8969	0.719
323 K, 101.33 kPa, x2 = 0.3521	0.337
323 K, 101.33 kPa, x2 = 0.5917	0.417
323 K, 101.33 kPa, x2 = 0.7654	0.5
323 K, 101.33 kPa, x2 = 0.8969	0.606

CCCCCCCC + CCO
298.15 K, 101.33 kPa
Details	viscosity [mPa·s]
x2 = 0.0986	0.523
x2 = 0.2153	0.533
x2 = 0.3204	0.557
x2 = 0.4431	0.603
x2 = 0.6117	0.686
x2 = 0.7378	0.779
x2 = 0.8362	0.873
x2 = 0.9134	0.973
x2 = 0.9773	1.071

CN(C)C=O + CCO
viscosity [mPa·s], 101 kPa
Details	293.15 K	298.15 K	303.15 K	313.15 K	323.15 K
x1 = 0.3863	–	0.881	–	–	–
x1 = 0.5	–	–	0.758	0.649	0.563
x2 = 0.0999	0.871	0.819	0.77	0.682	0.61
x2 = 0.2	0.876	0.818	0.767	0.68	0.604
x2 = 0.3	0.882	0.822	0.77	0.681	0.603
x2 = 0.4	0.881	0.821	0.767	0.674	0.596
x2 = 0.5001	0.872	0.813	0.759	0.668	0.592
x2 = 0.6	0.886	0.825	0.769	0.67	0.59
x2 = 0.7	0.919	0.852	0.791	0.685	0.598
x2 = 0.8	0.97	0.897	0.828	0.712	0.616
x2 = 0.9001	1.067	0.977	0.897	0.762	0.651

COCC(C)O (stereo not drawn) + CCO
viscosity [mPa·s], 101.33 kPa
Details	298.15 K	308.15 K	318.15 K
x1 = 0.0501	1.128	0.933	0.779
x1 = 0.1	1.174	0.964	0.801
x1 = 0.15	1.215	0.994	0.822
x1 = 0.2	1.253	1.025	0.846
x1 = 0.25	1.297	1.055	0.866
x1 = 0.3003	1.333	1.081	0.887
x1 = 0.35	1.369	1.111	0.909
x1 = 0.3999	1.405	1.138	0.928
x1 = 0.45	1.44	1.163	0.947
x1 = 0.5	1.477	1.188	0.964
x1 = 0.5498	1.508	1.211	0.979
x1 = 0.5998	1.537	1.23	0.991
x1 = 0.6498	1.564	1.245	1.004
x1 = 0.7	1.589	1.263	1.017
x1 = 0.75	1.61	1.275	1.029
x1 = 0.8002	1.629	1.289	1.038
x1 = 0.8498	1.647	1.3	1.048
x1 = 0.8999	1.665	1.308	1.058
x1 = 0.9499	1.677	1.318	1.068
